Test results taken from publication PMC7252619 (PLoS ONE, 2020).
Read-outs that look alike come from different tables or passages of the source.

Legend:
[1] = target: T1, EPHB4 (Homo sapiens, UniProt P54760); experiment: Kinase activity test (ReactionBiology), % enzyme activity relative to DMSO; format: biochemical; details: EPHB4;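 further: EPHB4 was one of ten selected kinases in the screening panel, with enzyme activity expressed as a percentage of DMSO controls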
T1 construct: purchased ReactionBiology
T1 sequence (P54760 16-987): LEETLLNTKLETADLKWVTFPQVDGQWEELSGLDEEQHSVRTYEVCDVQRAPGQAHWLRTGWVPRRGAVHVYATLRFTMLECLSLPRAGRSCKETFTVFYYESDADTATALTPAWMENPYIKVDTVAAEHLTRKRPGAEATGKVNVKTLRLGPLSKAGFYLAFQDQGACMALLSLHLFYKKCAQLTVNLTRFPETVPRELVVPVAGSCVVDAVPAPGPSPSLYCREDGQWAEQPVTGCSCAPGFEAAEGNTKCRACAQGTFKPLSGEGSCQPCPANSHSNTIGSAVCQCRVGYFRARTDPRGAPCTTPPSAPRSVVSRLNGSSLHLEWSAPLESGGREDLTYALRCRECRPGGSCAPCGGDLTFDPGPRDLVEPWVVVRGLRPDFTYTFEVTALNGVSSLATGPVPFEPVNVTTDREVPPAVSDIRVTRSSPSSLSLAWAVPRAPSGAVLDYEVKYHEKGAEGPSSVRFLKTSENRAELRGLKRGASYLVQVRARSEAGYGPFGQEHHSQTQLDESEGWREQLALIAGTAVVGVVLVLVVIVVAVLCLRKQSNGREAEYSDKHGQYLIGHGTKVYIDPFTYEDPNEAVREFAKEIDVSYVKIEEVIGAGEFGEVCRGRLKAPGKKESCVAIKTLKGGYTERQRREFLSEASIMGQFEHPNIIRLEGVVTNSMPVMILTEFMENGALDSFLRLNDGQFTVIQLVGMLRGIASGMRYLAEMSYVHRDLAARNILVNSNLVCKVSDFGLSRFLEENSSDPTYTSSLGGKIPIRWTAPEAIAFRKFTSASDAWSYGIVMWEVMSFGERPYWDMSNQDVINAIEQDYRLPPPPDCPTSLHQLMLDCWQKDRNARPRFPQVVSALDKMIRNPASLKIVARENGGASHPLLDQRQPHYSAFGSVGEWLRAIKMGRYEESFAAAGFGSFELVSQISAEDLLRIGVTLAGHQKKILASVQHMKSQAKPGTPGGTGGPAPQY

[2] = system: human PBMCs (responder cells) with RPMI1788 stimulator cells; experiment: Mixed Lymphocyte Reaction (MLR, T cell assay), 3H-thymidine incorporation; format: cell-based; details: for Selectivity Index (SI) MLR/B-cell: ratio of IC50 values
Method: In order to test the efficacy and selectivity of the hit compounds on B-cells, 4 assays were performed: B-cell assay, Mixed Lymphocyte Reaction (MLR), WST-1 assay on RPMI1788 cells (B-cell line) and cytotoxicity WST-1 assay on Jurkat cells (T-cell line). Compounds were prepared as 10 mM stock solutions in dimethylsulfoxide (DMSO)and were tested at 50-10-1-0.1-0.01 and 0.001 μM in the 4 assays.
Blood samples of healthy volunteers were collected at the Red Cross of Mechelen, Belgium. Each donor consents to the use of their blood for research purposes. […] The human B cell line RPMI1788 (American Type Culture Collection, USA) and the human T cell line Jurkat (European Collection of Cell Cultures, ECACC, England) were maintained in RPMI1640 culture medium (BioWhittaker®, Lonza, Verviers, Belgium) containing 10% foetal calf serum (FCS, HyClone® Thermo Scientific, United Kingdom) and 5 μg/mL gentamicin sulphate (BioWhittaker®, Lonza, Verviers, Belgium) at 37°C and 5% CO2.
MLR assay (T cell assay): Freshly isolated human PBMCs (responder cells) were resuspended in RPMI1640 medium containing 10% FCS and 5nμg/mL gentamicin sulphate. RPMI1788 cells (stimulator cells) were inactivated by treatment with mitomycin C (Kyowa®, Takeda Belgium, Brussels, Belgium) for 20 min at 37°C, washed and finally suspended in culture medium. An amount of 100 μL of each cell suspension was mixed with 20 μL of diluted compound. The mixed cells were cultured at 37°C for 6 days in 5% CO2. DNA synthesis was assayed by the addition of 10 μCi (methyl-3H) thymidine (Perkin Elmer, Zaventem, Belgium) per well during the last 18 h in culture. Thereafter, the cells were harvested on glass filter paper and the counts per minute determined in a liquid scintillation counter (TopCount, Perkin Elmer, Zaventem, Belgium).

[3] = system: human CD19+ B cells; experiment: B-cell assay: IgG production of ODN2006-stimulated primary B cells (AlphaLISA); format: cell-based
[4] = target: T2, NEK2 (Homo sapiens, UniProt P51955); experiment: Kinase activity test (ReactionBiology), % enzyme activity relative to DMSO; format: biochemical;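 further: FDA-approved drugs chosen by structure-based repositioning, each screened at 10 or 1 µM for kinase activity, expressed as percent of DMSO controls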
T2 construct: purchased ReactionBiology
T2 sequence (P51955 1-445): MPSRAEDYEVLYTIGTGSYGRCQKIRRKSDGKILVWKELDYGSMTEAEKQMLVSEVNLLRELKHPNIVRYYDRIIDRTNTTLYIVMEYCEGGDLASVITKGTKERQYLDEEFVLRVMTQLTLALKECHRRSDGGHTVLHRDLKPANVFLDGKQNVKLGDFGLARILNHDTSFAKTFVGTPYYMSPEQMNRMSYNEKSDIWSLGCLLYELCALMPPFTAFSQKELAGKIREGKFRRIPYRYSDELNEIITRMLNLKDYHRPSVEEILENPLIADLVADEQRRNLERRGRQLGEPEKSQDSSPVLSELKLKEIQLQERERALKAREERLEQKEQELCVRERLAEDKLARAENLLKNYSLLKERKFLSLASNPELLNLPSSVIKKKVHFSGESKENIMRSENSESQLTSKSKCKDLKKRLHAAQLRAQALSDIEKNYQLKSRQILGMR

[5] = target: T3, VEGFR2 (Homo sapiens, UniProt P35968); experiment: as above; format: biochemical; design: purchased ReactionBiology; details: VEGFR2
[6] = target: T4, CK1d (Homo sapiens, UniProt P48730); experiment: as above; format: biochemical; details: CK1d
T4 construct: purchased ReactionBiology

[7] = target: T5, MAP2K2 (Homo sapiens, UniProt P36507); experiment: as above; format: biochemical
T5 construct: purchased ReactionBiology

[8] = WST-1 cytotoxicity assay on Jurkat cells (T-cell line); format: cell-based, human; details: human, Jurkat cells (T-cell line), mean of 4 independent measures, read-out: Cytotoxicity, WST-1 Jurkat IC 50 (µM) Mean
[9] = WST-1 cytotoxicity assay on RPMI1788 cells (B-cell line); format: cell-based, human; details: human, RPMI1788 cells (B-cell line), mean of 4 independent measures, read-out: Cytotoxicity, WST-1 RPMI 1788 IC 50 (µM) Mean
Method: (§1) Compounds were prepared as 10 mM stock solutions in dimethylsulfoxide (DMSO)and were tested at 50-10-1-0.1-0.01 and 0.001 μM in the 4 assays.
(§2) The human B cell line RPMI1788 (American Type Culture Collection, USA) and the human T cell line Jurkat (European Collection of Cell Cultures, ECACC, England) were maintained in RPMI1640 culture medium (BioWhittaker®, Lonza, Verviers, Belgium) containing 10% foetal calf serum (FCS, HyClone® Thermo Scientific, United Kingdom) and 5 μg/mL gentamicin sulphate (BioWhittaker®, Lonza, Verviers, Belgium) at 37°C and 5% CO2.
(§3) WST-1 assays on RPMI-1788 cells and Jurkat cells were performed as follows: 20 μL of test compound dilution were added to each well containing exponential growing cells and the plates were incubated for 48 h at 37°C, 5% CO2. Untreated cells and positive control (1% triton X-100, for the last 15 min) served as reference for maximum and minimum viability. At the end of incubation 100 μL of supernatant were removed and replaced by 10 μL of WST-1 solution (Cell Proliferation Reagent WST-1, Roche Applied Science).

[10] = target: T6, CDC7 (Homo sapiens, UniProt O00311); experiment: Kinase activity test (ReactionBiology), % enzyme activity relative to DMSO; format: biochemical;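 further: each drug screened at both 10 µM and 1 µM across a ten-kinase panel, activity expressed as percent of DMSO control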
T6 construct: purchased ReactionBiology

[11] = target: T7, MLK4 (Homo sapiens, UniProt Q5TCX8); format: biochemical; details: for % Enzyme Activity (relative to DMSO controls), Data 1: replicate Data 1; for % Enzyme Activity (relative to DMSO controls), Data 2: replicate Data 2
T7 construct: purchased ReactionBiology

[12] = system: Jurkat cells; experiment: WST-1 cytotoxicity assay on Jurkat cells (T-cell line); format: cell-based, human; details: 48 h; mean of 4 independent measures; read-out: Cytotoxicity, WST-1 Jurkat IC 50 (µM) Mean
[13] = system: RPMI1788 cells; experiment: WST-1 cytotoxicity assay on RPMI1788 cells (B-cell line); format: cell-based, human; details: 48 h; mean of 4 independent measures; read-out: Cytotoxicity, WST-1 RPMI 1788 IC 50 (µM) Mean
Method: as §1, §2, §3

[14] = target: T3, VEGFR2; experiment: KINOMEscan competition binding assay, dose response
[15] = Average, read-out: % Enzyme Activity (relative to DMSO controls), Average
[16] = replicate Data 1, read-out: % Enzyme Activity (relative to DMSO controls), Data 1
[17] = replicate Data 2, read-out: % Enzyme Activity (relative to DMSO controls), Data 2
[18] = Homo sapiens, B-cell, 168 h, IgG production, ODN2006 0.1 μM, 7 days, mean of 4 independent experiments, read-out: B-cell IC50
[19] = read-out: % Enzyme Activity (relative to DMSO controls), Average
[20] = read-out: % Enzyme Activity (relative to DMSO controls), Data 1
[21] = read-out: % Enzyme Activity (relative to DMSO controls), Data 2
[22] = read-out: % Enzyme activity at 1μM
[23] = read-out: % Enzyme activity at 10μM
[24] = 1 uM, Average, read-out: % Enzyme Activity (relative to DMSO controls), Average
[25] = 1 uM, replicate Data 1, read-out: % Enzyme Activity (relative to DMSO controls), Data 1
[26] = 1 uM, replicate Data 2, read-out: % Enzyme Activity (relative to DMSO controls), Data 2
[27] = 10 uM, Average, read-out: % Enzyme Activity (relative to DMSO controls), Average
[28] = 10 uM, replicate Data 1, read-out: % Enzyme Activity (relative to DMSO controls), Data 1
[29] = 10 uM, replicate Data 2, read-out: % Enzyme Activity (relative to DMSO controls), Data 2
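Wherever % Enzyme activity at 10μM is given: VEGFR2 was one member of a ten-kinase screening panel testing marketed FDA-approved drugs.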
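Wherever % Enzyme activity at 1μM is given: VEGFR2 was one member of a ten-kinase screening panel testing marketed FDA-approved drugs.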

T7 sequence (Q5TCX8 whole entry): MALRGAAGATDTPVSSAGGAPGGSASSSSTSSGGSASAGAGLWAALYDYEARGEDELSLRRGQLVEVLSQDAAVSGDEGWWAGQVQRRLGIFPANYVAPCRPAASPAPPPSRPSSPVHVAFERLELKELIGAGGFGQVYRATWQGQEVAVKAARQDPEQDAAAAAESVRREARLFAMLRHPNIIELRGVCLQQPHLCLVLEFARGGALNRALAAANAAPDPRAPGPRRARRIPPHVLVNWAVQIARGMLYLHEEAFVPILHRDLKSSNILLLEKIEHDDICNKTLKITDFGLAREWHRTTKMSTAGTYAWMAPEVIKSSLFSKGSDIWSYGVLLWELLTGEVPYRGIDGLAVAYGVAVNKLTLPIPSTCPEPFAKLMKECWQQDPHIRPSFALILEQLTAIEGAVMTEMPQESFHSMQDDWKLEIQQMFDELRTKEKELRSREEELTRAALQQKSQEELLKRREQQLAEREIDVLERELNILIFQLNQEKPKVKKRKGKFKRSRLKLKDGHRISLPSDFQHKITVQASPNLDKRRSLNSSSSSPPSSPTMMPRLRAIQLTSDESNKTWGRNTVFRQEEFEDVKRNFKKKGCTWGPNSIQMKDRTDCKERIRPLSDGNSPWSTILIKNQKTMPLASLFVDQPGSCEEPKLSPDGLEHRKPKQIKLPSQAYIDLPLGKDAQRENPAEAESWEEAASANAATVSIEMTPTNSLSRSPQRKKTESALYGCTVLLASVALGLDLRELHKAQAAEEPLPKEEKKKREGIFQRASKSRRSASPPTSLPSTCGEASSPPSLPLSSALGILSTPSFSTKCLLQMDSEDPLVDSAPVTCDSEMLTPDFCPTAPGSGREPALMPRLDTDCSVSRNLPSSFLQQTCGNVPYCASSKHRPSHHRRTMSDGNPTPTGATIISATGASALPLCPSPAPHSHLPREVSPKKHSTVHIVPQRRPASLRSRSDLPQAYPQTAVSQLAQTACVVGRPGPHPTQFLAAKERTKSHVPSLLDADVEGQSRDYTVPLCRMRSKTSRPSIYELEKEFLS
T3 sequence (P35968 20-1356): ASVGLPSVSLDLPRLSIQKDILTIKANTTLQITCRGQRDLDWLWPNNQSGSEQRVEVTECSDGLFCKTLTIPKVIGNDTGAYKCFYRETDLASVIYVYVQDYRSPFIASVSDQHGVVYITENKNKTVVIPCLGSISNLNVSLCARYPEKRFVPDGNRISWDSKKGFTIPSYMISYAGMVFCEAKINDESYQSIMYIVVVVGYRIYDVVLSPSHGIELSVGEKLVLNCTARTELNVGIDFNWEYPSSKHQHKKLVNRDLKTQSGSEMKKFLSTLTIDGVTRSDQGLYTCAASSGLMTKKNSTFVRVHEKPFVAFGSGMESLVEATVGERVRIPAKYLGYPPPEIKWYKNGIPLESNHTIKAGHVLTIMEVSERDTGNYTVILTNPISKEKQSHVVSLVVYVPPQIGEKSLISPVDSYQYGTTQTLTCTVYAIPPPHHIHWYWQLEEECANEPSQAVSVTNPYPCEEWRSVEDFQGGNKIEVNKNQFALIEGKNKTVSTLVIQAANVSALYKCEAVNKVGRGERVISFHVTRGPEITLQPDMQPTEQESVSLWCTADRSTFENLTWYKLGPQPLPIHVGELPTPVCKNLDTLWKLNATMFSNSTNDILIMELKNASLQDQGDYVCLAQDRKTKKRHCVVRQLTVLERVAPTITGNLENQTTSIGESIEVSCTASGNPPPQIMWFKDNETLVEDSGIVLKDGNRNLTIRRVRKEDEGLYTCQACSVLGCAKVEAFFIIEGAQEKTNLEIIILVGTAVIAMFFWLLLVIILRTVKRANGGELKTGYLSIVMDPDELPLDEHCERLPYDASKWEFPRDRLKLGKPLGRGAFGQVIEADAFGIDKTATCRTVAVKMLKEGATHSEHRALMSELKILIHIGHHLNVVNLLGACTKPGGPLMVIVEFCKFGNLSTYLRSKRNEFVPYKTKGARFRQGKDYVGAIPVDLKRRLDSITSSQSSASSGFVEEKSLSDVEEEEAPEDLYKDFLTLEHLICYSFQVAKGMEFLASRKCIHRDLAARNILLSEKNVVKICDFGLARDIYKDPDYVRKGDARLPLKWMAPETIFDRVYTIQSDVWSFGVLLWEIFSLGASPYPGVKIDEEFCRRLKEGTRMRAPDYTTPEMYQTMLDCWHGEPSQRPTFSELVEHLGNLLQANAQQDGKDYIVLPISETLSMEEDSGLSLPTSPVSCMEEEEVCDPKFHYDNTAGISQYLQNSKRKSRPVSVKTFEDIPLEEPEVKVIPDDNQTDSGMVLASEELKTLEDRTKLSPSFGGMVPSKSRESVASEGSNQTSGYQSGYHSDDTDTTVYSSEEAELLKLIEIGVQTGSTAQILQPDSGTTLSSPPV
T4 sequence (P48730 whole entry): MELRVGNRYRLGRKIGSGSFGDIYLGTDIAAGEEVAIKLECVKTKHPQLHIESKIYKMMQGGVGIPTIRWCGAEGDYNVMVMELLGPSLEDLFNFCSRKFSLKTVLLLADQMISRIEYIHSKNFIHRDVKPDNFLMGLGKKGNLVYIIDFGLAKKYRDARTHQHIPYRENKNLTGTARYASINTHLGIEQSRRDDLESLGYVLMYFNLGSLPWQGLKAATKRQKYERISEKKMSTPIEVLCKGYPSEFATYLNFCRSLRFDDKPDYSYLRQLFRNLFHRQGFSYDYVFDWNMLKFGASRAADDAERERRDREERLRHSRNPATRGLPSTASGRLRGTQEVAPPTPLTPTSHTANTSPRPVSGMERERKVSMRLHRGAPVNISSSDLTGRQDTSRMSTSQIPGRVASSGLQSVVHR
T5 sequence (P36507 whole entry): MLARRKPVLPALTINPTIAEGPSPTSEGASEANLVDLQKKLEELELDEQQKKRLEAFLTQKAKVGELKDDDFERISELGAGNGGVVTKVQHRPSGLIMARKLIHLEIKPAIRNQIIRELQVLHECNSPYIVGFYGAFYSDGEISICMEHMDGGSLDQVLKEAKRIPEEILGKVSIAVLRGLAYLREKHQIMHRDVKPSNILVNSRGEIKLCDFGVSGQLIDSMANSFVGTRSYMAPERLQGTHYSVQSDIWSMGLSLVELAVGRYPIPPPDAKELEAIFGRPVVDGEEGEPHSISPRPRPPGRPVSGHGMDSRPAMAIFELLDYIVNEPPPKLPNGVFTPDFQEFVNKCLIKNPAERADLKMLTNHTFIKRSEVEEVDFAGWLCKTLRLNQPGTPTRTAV
T6 sequence (O00311 whole entry): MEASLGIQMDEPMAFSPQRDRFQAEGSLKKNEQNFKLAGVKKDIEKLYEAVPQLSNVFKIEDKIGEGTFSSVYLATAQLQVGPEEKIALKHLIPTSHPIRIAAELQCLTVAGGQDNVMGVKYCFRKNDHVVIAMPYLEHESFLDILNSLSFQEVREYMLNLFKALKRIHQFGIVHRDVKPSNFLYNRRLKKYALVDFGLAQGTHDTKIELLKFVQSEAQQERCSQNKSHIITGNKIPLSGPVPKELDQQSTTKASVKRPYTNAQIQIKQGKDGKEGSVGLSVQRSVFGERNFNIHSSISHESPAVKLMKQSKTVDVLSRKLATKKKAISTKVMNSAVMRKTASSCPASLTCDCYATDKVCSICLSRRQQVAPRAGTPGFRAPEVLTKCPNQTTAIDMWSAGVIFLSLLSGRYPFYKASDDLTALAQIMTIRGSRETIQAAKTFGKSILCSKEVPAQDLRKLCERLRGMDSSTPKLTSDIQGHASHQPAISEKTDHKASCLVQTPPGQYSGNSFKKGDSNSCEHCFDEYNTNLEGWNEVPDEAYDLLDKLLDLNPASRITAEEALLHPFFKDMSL
T6 sequence (Q9UBU7 whole entry partner): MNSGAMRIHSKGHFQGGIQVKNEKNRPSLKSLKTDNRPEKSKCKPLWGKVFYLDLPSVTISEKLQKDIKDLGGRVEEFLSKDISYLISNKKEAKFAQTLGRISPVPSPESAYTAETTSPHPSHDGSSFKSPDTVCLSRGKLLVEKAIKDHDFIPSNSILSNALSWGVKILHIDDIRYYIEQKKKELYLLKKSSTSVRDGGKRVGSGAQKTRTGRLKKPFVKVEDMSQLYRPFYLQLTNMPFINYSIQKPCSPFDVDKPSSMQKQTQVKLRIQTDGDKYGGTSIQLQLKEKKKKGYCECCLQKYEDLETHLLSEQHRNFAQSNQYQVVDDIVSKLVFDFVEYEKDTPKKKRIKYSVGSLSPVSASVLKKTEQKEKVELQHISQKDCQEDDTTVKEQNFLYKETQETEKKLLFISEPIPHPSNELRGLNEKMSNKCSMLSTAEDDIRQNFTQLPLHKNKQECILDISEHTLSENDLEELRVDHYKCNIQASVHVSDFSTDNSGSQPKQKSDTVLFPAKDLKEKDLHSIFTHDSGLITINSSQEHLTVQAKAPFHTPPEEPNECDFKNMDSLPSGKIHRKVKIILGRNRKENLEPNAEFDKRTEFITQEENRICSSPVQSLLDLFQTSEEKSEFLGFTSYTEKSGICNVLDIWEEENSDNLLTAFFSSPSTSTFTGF

## Oc1cc(Cl)ccc1Oc1ccc(Cl)cc1Cl [Triclosan, reference compound]
[1]; [15]
  remaining activity at 1 µM: 100%
  remaining activity at 10 µM: 97.4%
[1]; [16]
  remaining activity at 1 µM: 101%
  remaining activity at 10 µM: 97.3%
[1]; [17]
  remaining activity at 1 µM: 99.9%
  remaining activity at 10 µM: 97.4%
[2]; Homo sapiens, RPMI-1788, read-out: T-cell efficacy, MLR IC 50 (µM) Mean
  IC50: 34.3 µM
[2]
  Selectivity Index (SI) MLR/B-cell: 1.64
[3]; [18]
  IC50: 20.9 µM
[4]; [19]
  remaining activity at 1 µM: 99.2%
  remaining activity at 10 µM: 64.6%
[4]; [20]
  remaining activity at 1 µM: 98.5%
  remaining activity at 10 µM: 68.9%
[4]; [21]
  remaining activity at 1 µM: 99.8%
  remaining activity at 10 µM: 60.4%
[4]; [22]
  remaining activity at 1 µM: 99.2%
[4]; [23]
  remaining activity at 10 µM: 64.6%
[5]; [24]
  remaining activity at 1 µM: 111%
[5]; [25]
  remaining activity at 1 µM: 108%
[5]; [26]
  remaining activity at 1 µM: 114%
[5]; [27]
  remaining activity at 10 µM: 101%
[5]; [28]
  remaining activity at 10 µM: 103%
[5]; [29]
  remaining activity at 10 µM: 99.9%
[6]; [15]
  remaining activity at 1 µM: 96.6%
  remaining activity at 10 µM: 96.9%
[6]; [16]
  remaining activity at 1 µM: 94.8%
  remaining activity at 10 µM: 97.8%
[6]; [17]
  remaining activity at 1 µM: 98.3%
  remaining activity at 10 µM: 96%
[7]; [19]
  remaining activity at 1 µM: 97.6%
  remaining activity at 10 µM: 96%
[7]; [20]
  remaining activity at 1 µM: 95.3%
  remaining activity at 10 µM: 95%
[7]; [21]
  remaining activity at 1 µM: 99.8%
  remaining activity at 10 µM: 97.1%
[8]
  IC50 at 48 h: 26.2 µM
[9]
  IC50 at 48 h: 27.7 µM
[10]; [19]
  remaining activity at 1 µM: 70.5%
  remaining activity at 10 µM: 65.4%
[10]; [20]
  remaining activity at 1 µM: 68.2%
  remaining activity at 10 µM: 71.2%
[10]; [21]
  remaining activity at 1 µM: 72.7%
  remaining activity at 10 µM: 59.7%
[10]; [22]
  remaining activity at 1 µM: 70.5%
[10]; [23]
  remaining activity at 10 µM: 65.4%

## CC(=O)Nc1nnc(S(N)(=O)=O)s1 [Acetazolamide]
[11]; 1 uM
  % Enzyme Activity (relative to DMSO controls), Average: 106.03%
  % Enzyme Activity (relative to DMSO controls), Data 1: 105.08%
  % Enzyme Activity (relative to DMSO controls), Data 2: 106.98%
[11]; 10 uM
  % Enzyme Activity (relative to DMSO controls), Average: 98.49%
  % Enzyme Activity (relative to DMSO controls), Data 1: 99.01%
  % Enzyme Activity (relative to DMSO controls), Data 2: 97.97%

## NCCC(O)(P(=O)(O)O)P(=O)(O)O [Pamidronate]
[11]; 1 uM
  % Enzyme Activity (relative to DMSO controls), Average: 79.13%
  % Enzyme Activity (relative to DMSO controls), Data 1: 76.76%
  % Enzyme Activity (relative to DMSO controls), Data 2: 81.5%
[11]; 10 uM
  % Enzyme Activity (relative to DMSO controls), Average: 78.77%
  % Enzyme Activity (relative to DMSO controls), Data 1: 82.48%
  % Enzyme Activity (relative to DMSO controls), Data 2: 75.06%

## COc1c(C)c2c(c(O)c1C/C=C(\C)CCC(=O)OCCN1CCOCC1)C(=O)OC2 [Mycophenolate Mofetyl]
[2]; mean of 4 independent measures, read-out: T-cell efficacy, MLR IC 50 (µM) Mean
  IC50: 0.121 µM
[3]; mean of 4 independent measures, read-out: B-cell efficacy, B cell IC 50 (µM) Mean
  IC50: 0.723 µM
[12]
  IC50: 0.552 µM
[13]
  IC50: 0.487 µM

## Cc1ccc(C(=O)Nc2ccc(S(=O)(=O)O)c3cc(S(=O)(=O)O)cc(S(=O)(=O)O)c23)cc1NC(=O)c1cccc(NC(=O)Nc2cccc(C(=O)Nc3cc(C(=O)Nc4ccc(S(=O)(=O)O)c5cc(S(=O)(=O)O)cc(S(=O)(=O)O)c45)ccc3C)c2)c1 [Suramin, reference compound]
[14]
  Kd: 25 µM
[2]; Homo sapiens, RPMI-1788, mean of 4 independent measures, read-out: T-cell efficacy, MLR IC 50 (µM) Mean
  IC50: 29.8 µM
[2]
  Selectivity Index (SI) MLR/B-cell: 0.85
[3]; [18]
  IC50: 35.2 µM
[5]; [24]
  remaining activity at 1 µM: 72.7%
[5]; [25]
  remaining activity at 1 µM: 73.6%
[5]; [26]
  remaining activity at 1 µM: 71.8%
[5]; [27]
  remaining activity at 10 µM: 6.48%
[5]; [28]
  remaining activity at 10 µM: 7.02%
[5]; [29]
  remaining activity at 10 µM: 5.94%
[5]; compound 1μM, relative to DMSO controls, read-out: % Enzyme activity at 1μM
  remaining activity at 1 µM: 72.7%
[5]; compound 10μM, relative to DMSO controls, read-out: % Enzyme activity at 10μM
  remaining activity at 10 µM: 6.48%
[8]
  IC50 at 48 h: > 50 µM
[9]
  IC50 at 48 h: > 50 µM
